# According to patent publication US3965109A, “Certain aryl amino pyridines” (priority 1971, dated 1976):
# Key:
# Speedwell = experiment: Selective herbicidal activity; type: in vivo, Veronica spp; details: 2 kg/hectare; 23 days; scale 0 to 5 (complete kill)
# Description: (§1) This Example illustrates the selective herbicidal activity of compounds No. 5 and 12 of Table 1. The compounds, formulated as in Example 5 were sprayed on to pots of soil previously sown with seeds of the plant species shown in Tables 13 and 14.
# Sugar beet = experiment: Further herbicidal test, various rates; type: in vivo; details: scale 0 to 5 (complete kill)
# [1] = tested on: Phaedon cochleariae (mustard beetles); experiment: Pest toxicity test; type: in vivo
# [2] = tested on: Agriolimax reticulatus (slugs); experiment: Molluscicidal activity test; type: in vivo, Agriolimax reticulatus (Mull); details: pellet with 4% by weight; 6 days; 10°C
# Procedure, shortened: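 Compound was applied to a calf feeding pellet at 4% by weight active ingredient after 24 h air drying. Two replicates, each of 2 slugs starved 24 h, were kept with a moist filter paper at 10°C, and kill was assessed after 6 days.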
# Maize = experiment: Herbicidal test, pre- and post-emergence; type: in vivo
# [3] = tested on: Pieris brassicae (cabbage white caterpillars); experiment: Pest toxicity test; type: in vivo; details: 0.1% by weight, 2 days
# [4] = tested on: Tetranychus telarius (red spider mites, adults); experiment: Pest toxicity test; type: in vivo; details: 0.1% by weight; French bean; 3 days
# Kale = experiment: Further herbicidal test, various rates; type: in vivo; details: scale 0 to 5 (complete kill)
# Onion = experiment: Further herbicidal test, various rates; type: in vivo; details: scale 0 to 5 (complete kill)
# Knotgrass = experiment: Selective herbicidal activity; type: in vivo, Polygonum aviculare; details: 2 kg/hectare; 23 days; scale 0 to 5 (complete kill)
# Description: as §1
# (§2) Table 14 gives the results for compound No. 12 of Table 1 The figures are assessments of damage to the plants 23 days after treatment, on a scale of 0 to 5 where 0 is no effect and 5 is complete kill
# Knotgrass Polygonum aviculare
# Lettuce = experiment: Herbicidal test, pre- and post-emergence; type: in vivo
# Wheat [5] = experiment: Herbicidal test, pre- and post-emergence; type: in vivo
# Rice = experiment: Further herbicidal test, various rates; type: in vivo; details: scale 0 to 5 (complete kill)
# Barley [6] = experiment: Selective herbicidal activity; type: in vivo
# Description: as §1, §2
# broadleaved plants = experiment: Selective herbicidal activity; type: in vivo; details: Tables 13 and 14
# Description: as §1, §2
# Wheat [7] = experiment: Selective herbicidal activity; type: in vivo
# Description: as §1, §2
# [8] = tested on: Puccinia recondita (wheat); experiment: Fungicidal test against foliar disease A (foliage spray plus soil drench); type: in vivo; details: 100 ppm spray and drench; 10 days
# [9] = tested on: Musca domestica (houseflies); experiment: Pest toxicity test, contact test; type: in vivo; details: 0.1% by weight; milk/sugar; 2 days; flies sprayed directly
# Barley [10] = experiment: Further herbicidal test, various rates; type: in vivo; details: scale 0 to 5 (complete kill)
# Megoura viceae = experiment: Pest toxicity test; type: in vivo; details: 0.1% by weight; broad bean; 2 days
# Aphis fabae = experiment: Pest toxicity test; type: in vivo; details: 0.1% by weight; broad bean; 2 days
# [11] = tested on: Aedes aegypti (mosquito larvae); experiment: Pest toxicity test; type: in vivo; details: 0.01% by weight; water; 1 day
# Carrot = experiment: Further herbicidal test, various rates; type: in vivo; details: scale 0 to 5 (complete kill)
# Mayweed = experiment: Selective herbicidal activity; type: in vivo, Tripleurospermum maritimum ssp. inodorum; details: 2 kg/hectare; 23 days; scale 0 to 5 (complete kill)
# Description: as §1
# Mayweed Tripleurospermum maritimum
# Pea = experiment: Further herbicidal test, various rates; type: in vivo; details: scale 0 to 5 (complete kill)
# [12] = tested on: Tetranychus telarius (red spider mites, eggs); experiment: Pest toxicity test; type: in vivo; details: 0.1% by weight; French bean; 3 days
# Tomato = experiment: Herbicidal test, pre- and post-emergence; type: in vivo
# [13] = tested on: Piricularia oryzae (rice); type: in vivo; details: 100 ppm spray and drench; 7 days
# Uncinula necator (vine) = experiment: Fungicidal test against foliar disease D (foliage spray plus soil drench); type: in vivo; details: 100 ppm spray and drench; 10 days
# Corn Marigold = experiment: Selective herbicidal activity; type: in vivo, Chrysanthemum segetum; details: 2 kg/hectare; 23 days; scale 0 to 5 (complete kill)
# Description: as §1, §2
# Corn marigold Chrysanthemum segetum
# [14] = tested on: Aedes aegypti (mosquito adults); experiment: Pest toxicity test; type: in vivo; details: 0.01% by weight; plywood; 1 day
# [15] = tested on: Plasmopara viticola (vine); experiment: Fungicidal test against foliar disease C (foliage spray plus soil drench); type: in vivo; details: 100 ppm spray and drench; 10 days
# [16] = tested on: Plutella maculipennis (diamond back moth larvae); experiment: Pest toxicity test; type: in vivo
# Redshank = experiment: Selective herbicidal activity; type: in vivo, Polygonum persicaria; details: 2 kg/hectare; 23 days; scale 0 to 5 (complete kill)
# Description: as §1
# Redshank Polygonum persicaria
# Oat = experiment: Further herbicidal test, various rates; type: in vivo; details: scale 0 to 5 (complete kill)
# [17] = tested on: larvae of the tick Boophilus microplus; experiment: Similar test on tick larvae on filter paper without horse serum; type: in vivo
# [18] = tested on: larvae of the blowfly (Lucilia serrata); experiment: Insecticidal test on blowfly larvae on treated filter paper; type: in vivo; details: scale of 1 to 6; filter paper with horse serum
# [19] = 10 lb/acre (11.2 kg/ha), scale 0 (no effect) to 3 (complete kill)
# [20] = 2 kg/hectare, 23 days, scale 0 to 5 (complete kill)
# [21] = 0.1% by weight, mustard/paper, 2 days
# [22] = 10 kg/ha, scale 0 to 3 (complete kill)
smiles,measurement,setting,value
"O=[N+]([O-])c1c(F)c(F)c(Nc2c(Cl)c(F)nc(F)c2Cl)c(F)c1F [Compound 12, 3,5-Dichloro-2,6-difluoro-4(4-nitro 2,3,5,6-tetrafluoroanilino) pyridine]",Damage to plants,Speedwell,0
same,"Damage to plants, post-emergence",Sugar beet; 5 lb/acre,5
same,"Damage to plants, pre-emergence",Sugar beet; 5 lb/acre,4
same,Mortality grading (kill),[1]; in vivo,0 (key: O represents less than 30% kill; 1 represents 30 - 49% kill; 2 represents 60 - 90% kill; 3 represents over 90% kill; C indicates a chemosterilant effect.; A indicates an antifeeding effect.)
same,% Kill of slugs,[2],50%
same,"Damage to plants, post-emergence",Maize; [19],1
same,"Damage to plants, pre-emergence",Maize; [19],3
same,Mortality grading (kill),[3],0 (O represents less than 30% kill)
same,Mortality grading (kill),[4],3 (3 represents over 90% kill)
same,"Damage to plants, post-emergence",Kale; 5 lb/acre,5
same,"Damage to plants, pre-emergence",Kale; 5 lb/acre,4
same,"Damage to plants, post-emergence",Onion; 5 lb/acre,0
same,Damage to plants,Knotgrass,4
same,"Damage to plants, post-emergence",Lettuce; [19],3
same,"Damage to plants, pre-emergence",Lettuce; [19],3
same,"Damage to plants, post-emergence",Wheat [5]; [19],0
same,"Damage to plants, pre-emergence",Wheat [5]; [19],3
same,"Damage to plants, post-emergence",Rice; 5 lb/acre,0
same,Damage to plants,Barley [6]; [20],1
same,damage to barley (in words),Barley [6]; Tables 13 and 14,undamaged
same,damage to the broadleaved plants (in words),broadleaved plants,caused damage to the broadleaved plants
same,Damage to plants,Wheat [7]; [20],0
same,damage to wheat (in words),Wheat [7]; Tables 13 and 14,undamaged
same,"Amount of disease grading, disease A",[8],2 (6 to 25)
same,"Mortality grading (kill), contact test",[9],2 (2 represents 60 - 90% kill)
same,"Damage to plants, post-emergence",Barley [10]; 5 lb/acre,2
same,Mortality grading (kill),Megoura viceae,3 (3 represents over 90% kill)
same,Mortality grading (kill),Aphis fabae,3 (3 represents over 90% kill)
same,Mortality grading (kill),[11],3 (3 represents over 90% kill)
same,"Damage to plants, post-emergence",Carrot; 5 lb/acre,5
same,"Damage to plants, pre-emergence",Carrot; 5 lb/acre,4
same,Damage to plants,Mayweed,5
same,"Damage to plants, post-emergence",Pea; 5 lb/acre,1
same,"Damage to plants, pre-emergence",Pea; 5 lb/acre,3
same,Mortality grading (kill),[12],3 (3 represents over 90% kill)
same,"Damage to plants, post-emergence",Tomato; [19],3
same,"Damage to plants, pre-emergence",Tomato; [19],3
same,"Amount of disease grading, disease E",[13],0 (61 to 100)
same,"Amount of disease grading, disease D",Uncinula necator (vine),3 (0 to 5)
same,Damage to plants,Corn Marigold,3.5
same,Mortality grading (kill),[14],0 (O represents less than 30% kill)
same,"Amount of disease grading, disease C",[15],3 (0 to 5)
same,Mortality grading (kill),[16]; in vivo,0 (key: O represents less than 30% kill; 1 represents 30 - 49% kill; 2 represents 60 - 90% kill; 3 represents over 90% kill; C indicates a chemosterilant effect.; A indicates an antifeeding effect.)
same,Damage to plants,Redshank,5
same,"Damage to plants, post-emergence",Oat; 5 lb/acre,0
same,"Damage to plants, pre-emergence",Oat; 5 lb/acre,0
"O=[N+]([O-])c1ccc(Nc2c(F)c(F)nc(F)c2F)c(C(F)(F)F)c1 [Compound 28, 4-(4-Nitro-2-trifluoromethylanilino)-tetrafluoropyridine]","Damage to plants, post-emergence",Sugar beet; 1 kg/hectare,5
same,"Damage to plants, pre-emergence",Sugar beet; 1 kg/hectare,5
same,"Damage to plants, post-emergence",Sugar beet; 5 kg/hectare,5
same,"Damage to plants, pre-emergence",Sugar beet; 5 kg/hectare,5
same,Mortality grading (kill),[1]; [21],3 (3 represents over 90% kill)
same,times more toxic than lindane,[17],10 times
same,"Damage to plants, post-emergence",Maize; [22],0
same,"Damage to plants, pre-emergence",Maize; [22],0
same,Mortality grading (kill),[3],3 (3 represents over 90% kill)
same,Mortality grading (kill),[4],3 (3 represents over 90% kill)
same,"Damage to plants, post-emergence",Kale; 1 kg/hectare,5
same,"Damage to plants, pre-emergence",Kale; 1 kg/hectare,4
same,"Damage to plants, post-emergence",Kale; 5 kg/hectare,4
same,"Damage to plants, pre-emergence",Kale; 5 kg/hectare,5
same,"Damage to plants, post-emergence",Onion; 1 kg/hectare,3
same,"Damage to plants, pre-emergence",Onion; 1 kg/hectare,5
same,"Damage to plants, post-emergence",Onion; 5 kg/hectare,0
same,"Damage to plants, pre-emergence",Onion; 5 kg/hectare,5
same,"Damage to plants, post-emergence",Lettuce; [22],3
same,"Damage to plants, pre-emergence",Lettuce; [22],3
same,"Damage to plants, post-emergence",Wheat [5]; [22],1
same,"Damage to plants, pre-emergence",Wheat [5]; [22],3
same,"Damage to plants, post-emergence",Rice; 1 kg/hectare,0
same,"Damage to plants, pre-emergence",Rice; 1 kg/hectare,4
same,"Damage to plants, post-emergence",Rice; 5 kg/hectare,0
same,"Damage to plants, pre-emergence",Rice; 5 kg/hectare,5
same,"Amount of disease grading, disease A (Table 4)",[8],0 (61 to 100)
same,"Mortality grading (kill), contact test",[9],3 (3 represents over 90% kill)
same,"Damage to plants, post-emergence",Barley [10]; 1 kg/hectare,1
same,"Damage to plants, pre-emergence",Barley [10]; 1 kg/hectare,4
same,"Damage to plants, post-emergence",Barley [10]; 5 kg/hectare,0
same,"Damage to plants, pre-emergence",Barley [10]; 5 kg/hectare,5
same,Mortality grading (kill),Megoura viceae,3 (3 represents over 90% kill)
same,Mortality grading (kill),Aphis fabae,3 (3 represents over 90% kill)
same,Mortality grading (kill),[11],3 (3 represents over 90% kill)
same,"Damage to plants, post-emergence",Carrot; 1 kg/hectare,3
same,"Damage to plants, pre-emergence",Carrot; 1 kg/hectare,4
same,"Damage to plants, post-emergence",Carrot; 5 kg/hectare,4
same,"Damage to plants, pre-emergence",Carrot; 5 kg/hectare,5
same,"Damage to plants, pre-emergence",Pea; 1 kg/hectare,5
same,"Damage to plants, post-emergence",Pea; 5 kg/hectare,0
same,"Damage to plants, pre-emergence",Pea; 5 kg/hectare,5
same,Mortality grading (kill),[12],3 (3 represents over 90% kill)
same,"Damage to plants, post-emergence",Tomato; [22],3
same,"Damage to plants, pre-emergence",Tomato; [22],3
same,"Amount of disease grading, disease D (Table 4)",Uncinula necator (vine),3 (0 to 5)
same,Mortality grading (kill),[14],3 (3 represents over 90% kill)
same,"Amount of disease grading, disease C (Table 4)",[15],3 (0 to 5)
same,Activity relative to lindane,[18],6 (6 represents activity 10 times that of the standard)
same,Mortality grading (kill),[16]; [21],3 (3 represents over 90% kill)
same,"Damage to plants, post-emergence",Oat; 1 kg/hectare,2
same,"Damage to plants, pre-emergence",Oat; 1 kg/hectare,4
same,"Damage to plants, post-emergence",Oat; 5 kg/hectare,0
same,"Damage to plants, pre-emergence",Oat; 5 kg/hectare,5
